Results as given in patent US20060161001A1, “Substituted heterocyclic compounds and methods of use” (Amgen Inc., priority 2004, published 2006).

system: LPS induced TNF release; experiment: THP1 cell assay (LPS induced TNF release); assay type: cell-based; conditions: Homo sapiens, THP-1; THP1 cells, LPS induced TNF-α secretion, 3 h at 37° C.
Experimental: Lipopolysaccharide-Activated THP1 Cell TNF Production Assay
THP1 cells are resuspended in fresh THP1 media (RPMI 1640, 10% heat-inactivated FBS, 1XPGS, 1XNEAA, plus 30 μM OME) at a concentration of 1E6/mL. One hundred microliters of cells per well are plated in a polystyrene 96-well tissue culture. One microgram per mL of bacterial LPS is prepared in THP1 media and is transferred to the wells. Test compounds are dissolved in 100% DMSO and are serially diluted 3-fold in a polypropylene 96-well microtiter plate (drug plate). HI control and LO control wells contain only DMSO. One microliter of test compound from the drug plate followed by 10 μL of LPS are transferred to the cell plate. The treated cells are induced to synthesize and secrete TNF-α at 37° C. for 3 h. Forty microliters of conditioned media are transferred to a 96-well polypropylene plate containing 110 μL of ECL buffer (50 mM Tris-HCl pH 8.0, 100 mM NaCl, 0.05% Tween 20, 0.05% NaN3 and 1% FBS) supplemented with 0.44 nM MAB610 monoclonal Ab (R&D Systems), 0.34 nM ruthenylated AF210NA polyclonal Ab (R&D Systems) and 44 μg/mL sheep anti-mouse M280 Dynabeads (Dynal). After a 2 h incubation at RT with shaking, the reaction is read on the ECL M8 Instrument (IGEN Inc.). A low voltage is applied to the ruthenylated TNF-α immune complexes, which in the presence of TPA (the active component in Origlo), results in a cyclical redox reaction generating light at […]. The amount of secreted TNF-α in the presence of compound compared with that in the presence of DMSO vehicle alone (HI control) is calculated using the formula: % control (POC)=(cpd−average LO)/(average HI−average LO)*100. Data (consisting of POC and inhibitor concentration in μM) is fitted to a 4-parameter equation (y=A+((B−A)/(I+((x/C)ˆD))), where A is the minimum y (POC) value, B is the maximum y (POC), C is the x (cpd concentration) at the point of inflection and D is the slope factor) using a Levenburg-Marquardt non-linear regression algorithm.

| SMILES | IC50 [µM] |
| --- | --- |
| Cc1cc(N2CCCc3ccc(-c4ccccc4)nc32)nc(N[C@@H](C)Cc2cccc([C@@H](C)NC(=O)OC(C)(C)C)c2)n1 [Example 61, tert-Butyl (R)-1-(3-((S)-2-(4-methyl-6-(7-phenyl-3,4-dihydro-1,8-naphthyridin-1 (2H)-yl)pyrimidin-2-ylamino)propyl)phenyl)ethylcarbamate] | ≤ 20 |
| O=C(C[C@@H](Cc1ccccc1)Nc1nccc(N2CCCc3cnc(-c4ccccc4)cc32)n1)N1CCOCC1 [Example 20, (R)-1-Morpholino-4-phenyl-3-(4-(7-phenyl-3,4-dihydro-1,6-naphthyridin-1(2H)-yl)pyrimidin-2-ylamino)butan-1-one] | ≤ 20 |
| CC(=O)c1cccc(C[C@H](C)Nc2nccc(N3CCCc4cnc(-c5ccccc5)cc43)n2)c1 [Example 12, (S)-1-(3-(2-(4-(7-Phenyl-3,4-dihydro-1,6-naphthyridin-1(2H)-yl)pyrimidin-2-yl-amino)propyl)phenyl)ethanone] | ≤ 20 |
| CC(Cc1cccc(CO)c1)Nc1nccc(N2CCCc3cnc(-c4ccccc4)cc32)n1 (stereo not drawn) [Example 4, (3-(2-(4-(7-Phenyl-3,4-dihydro-1,6-naphthyridin-1(2H)-yl)pyrimidin-2-ylamino)-propyl)phenyl)methanol] | ≤ 20 |
| C[C@H](N)c1cccc(C[C@H](C)Nc2nccc(N3CCCc4cnc(-c5ccccc5)cc43)n2)c1 [Example 109, N-((S)-1-(3-((S)-1-Aminoethyl)phenyl)propan-2-yl)-4-(7-phenyl-3,4-dihydro-1,6-naphthyridin-1(2H)-yl)pyrimidin-2-amine] | ≤ 20 |
| Cc1cc(N2CCCc3ccc(-c4ccccc4)nc32)nc(N[C@@H](C)Cc2cccc([C@@H](C)N)c2)n1 [Example 62, N-((S)-1-(3-((R)-1-Aminoethyl)phenyl)propan-2-yl)-4-methyl-6-(7-phenyl-3,4-dihydro-1,8-naphthyridin-1(2H)-yl)pyrimidin-2-amine] | ≤ 20 |
| FC(F)(F)c1cc(N2CCCc3ccc(-c4ccccc4)nc32)nc(NCCc2ccccc2)n1 [Example 56, N-Phenethyl-4-(7-phenyl-3,4-dihydro-1,8-naphthyridin-1(2H)-yl)-6-(trifluoromethyl)pyrimidin-2-amine] | ≤ 20 |
| C[C@@H](Cc1cccc([C@@H](C)N)c1)Nc1nccc(N2CCCc3cnc(-c4ccccc4)cc32)n1 [Example 10, N-((S)-1-(3-((R)-1-Aminoethyl)phenyl)propan-2-yl)-4-(7-phenyl-3,4-dihydro-1,6-naphthyridin-1(2H)-yl)pyrimidin-2-amine] | ≤ 20 |
| CC(O)c1cc2c(nc1-c1ccccc1)N(c1ccnc(NCCc3ccccc3)n1)CCC2 (stereo not drawn) [Example 73, 1-(8-(2-(Phenethylamino)pyrimidin-4-yl)-2-phenyl-5,6,7,8-tetrahydro-1,8-naphthyridin-3-yl)ethanol] | ≤ 20 |
| O=C(O)c1cc2c(nc1-c1ccccc1)N(c1ccnc(NCCc3ccccc3)n1)CCC2 [Example 69, 8-(2-(Phenethylamino)pyrimidin-4-yl)-2-phenyl-5,6,7,8-tetrahydro-1,8-naphthyridine-3-carboxylic acid] | ≤ 20 |
| CC(Cc1cccc(CN)c1)Nc1nccc(N2CCCc3ccc(-c4ccccc4)nc32)n1 (stereo not drawn) [Example 49, N-(1-(3-(Aminomethyl)phenyl)propan-2-yl)-4-(7-phenyl-3,4-dihydro-1,8-naphthyridin-1(2H)-yl)pyrimidin-2-amine] | ≤ 20 |
| CC(C)(C)OC(=O)N1CCC(Nc2nccc(N3CCCc4ccc(-c5ccccc5)nc43)n2)CC1 [Example 54, tert-Butyl 4-(4-(7-phenyl-3,4-dihydro-1,8-naphthyridin-1(2H)-yl)pyrimidin-2-yl-amino)piperidine-1-carboxylate] | ≤ 20 |
| NC(=O)[C@@H](Cc1ccccc1)Nc1nccc(N2CCCc3cnc(-c4ccccc4)cc32)n1 [Example 33, (R)-3-Phenyl-2-(4-(7-phenyl-3,4-dihydro-1,6-naphthyridin-1(2H)-yl)pyrimidin-2-ylamino)propanamide] | ≤ 20 |
| CCOC(=O)N1CCC(Nc2nccc(N3CCCc4ccc(-c5ccccc5)nc43)n2)CC1 [Example 87, Ethyl-4-(4-(7-phenyl-3,4-dihydro-1,8-naphthyridin-1(2H)-yl)pyrimidin-2-ylamino)-piperidine-1-carboxylate] | ≤ 20 |
| O=C(O)C[C@@H](Cc1ccccc1)Nc1nccc(N2CCCc3cnc(-c4ccccc4)cc32)n1 [Example 19, (R)-4-Phenyl-3-(4-(7-phenyl-3,4-dihydro-1,6-naphthyridin-1(2H)-yl)pyrimidin-2-ylamino)butanoic acid] | ≤ 20 |
| CC(Cc1cccc(CN)c1)Nc1nccc(N2CCCc3cnc(-c4ccccc4)cc32)n1 (stereo not drawn) [Example 5, N-(1-(3-(Aminomethyl)phenyl)propan-2-yl)-4-(7-phenyl-3,4-dihydro-1,6-naphthyridin-1(2H)-yl)pyrimidin-2-amine] | ≤ 20 |
| c1ccc(CCNc2nccc(N3CCCc4ccc(-c5ccccc5)nc43)n2)cc1 [Example 47, N-Phenethyl-4-(7-phenyl-3,4-dihydro-1,8-naphthyridin-1(2H)-yl)pyrimidin-2-amine] | ≤ 20 |
| Cc1cc(N2CCCc3ccc(-c4ccccc4)nc32)nc(NC2CCN(C(=O)OC(C)(C)C)CC2)n1 [Example 60, tert-Butyl 4-(4-methyl-6-(7-phenyl-3,4-dihydro-1,8-naphthyridin-1(2H)-yl)-pyrimidin-2-ylamino)piperidine-1-carboxylate] | ≤ 20 |

Next, values leading:

| IC50 [µM] | SMILES |
| --- | --- |
| ≤ 20 | N[C@H]1CC[C@H](Nc2nccc(N3CCCc4cc(CO)c(-c5ccccc5)nc43)n2)CC1 [Example 76, (8-(2-((1R,4R)-4-Aminocyclohexylamino)pyrimidin-4-yl)-2-phenyl-5,6,7,8-tetrahydro-1,8-naphthyridin-3-yl)methanol] |
| ≤ 20 | O=C(C[C@@H](Cc1ccccc1)Nc1nccc(N2CCCc3cnc(-c4ccccc4)cc32)n1)N1CCNCC1 [Example 22, (R)-4-Phenyl-3-(4-(7-phenyl-3,4-dihydro-1,6-naphthyridin-1(2H)-yl)pyrimidin-2-ylamino)-1-(piperazin-1yl)butan-1-one] |
| ≤ 20 | c1ccc(-c2ncc3c(n2)N(c2ccnc(NC4CCNCC4)n2)CCO3)cc1 [Example 106, 4-(2-Phenyl-6,7-dihydropyrimido[5,4-b][1,4]oxazin-8-yl)-N-(piperidin-4-yl)-pyrimidin-2-amine] |
| ≤ 20 | CC(C)(Cc1ccc(F)cc1)Nc1nccc(N2CCCc3cnc(-c4ccccc4)cc32)n1 [Example 40, N-(1-(4-Fluorophenyl)-2-methylpropan-2-yl)-4-(7-phenyl-3,4-dihydro-1,6-naphthyridin-1(2H)-yl) pyrimidin-2-amine] |
| ≤ 20 | Fc1cnc(NC2CCNCC2)nc1N1CCCc2cnc(-c3ccccc3)cc21 [Example 25, 5-Fluoro-4-(7-phenyl-3,4-dihydro-1,6-naphthyridin-1(2H)-yl)-N-(piperidin-4-yl)pyrimidin-2-amine] |
| ≤ 20 | CC(C)NC1CCC(Nc2nccc(N3CCCc4ccc(-c5ccccc5)nc43)n2)CC1 [Example 89, (1R,4R)-N^1-Isopropyl-N^4-(4-(7-phenyl-3,4-dihydro-1,8-naphthyridin-1(2H)-yl)pyrimidin-2-yl)cyclohexane-1,4-diamine] |
| ≤ 20 | NC1CCC(Nc2nccc(N3CCCc4ccc(-c5ccccc5)nc43)n2)CC1 [Example 88, (1R,4R)-N^1-(4-(7-Phenyl-3,4-dihydro-1,8-naphthyridin-1(2H)-ylpyrimidin-2-yl)-cyclohexane-1,4-diamine] |
| ≤ 20 | CC(=O)NC1CCC(Nc2nccc(N3CCCc4ccc(-c5ccccc5)nc43)n2)CC1 [Example 90, N-((1R,4R)-4-(4-(7-Phenyl-3,4-dihydro-1,8-naphthyridin-1(2H)-yl)pyrimidin-2-ylamino)cyclohexyl)acetamide] |
| ≤ 20 | O=C(C[C@@H](Cc1ccccc1)Nc1nccc(N2CCCc3cnc(-c4ccccc4)cc32)n1)NC1CC1 [Example 21, (R)-N-Cyclopropyl-4-phenyl-3-(4-(7-phenyl-3,4-dihydro-1,6-naphthyridin-1(2H)-yl)pyrimidin-2-ylamino)butanamide] |
| ≤ 20 | NC1CCC(Nc2nccc(N3CCCc4cnc(-c5ccccc5)cc43)n2)CC1 [Example 34, (1R,4R)-N^1-(4-(7-Phenyl-3,4-dihydro-1,6-naphthyridin-1(2H)-yl)pyrimidin-2-yl)cyclohexane-1,4-diamine] |
| ≤ 20 | c1ccc(-c2cnc3c(c2)N(c2ccnc(NC4CCNCC4)n2)CCC3)cc1 [Example 31, 4-(7-Phenyl-3,4-dihydro-1,5-naphthyridin-1(2H)-yl)-N-(piperidin-4-yl)pyrimidin-2-amine] |
| ≤ 20 | c1ccc(-c2cc3c(cn2)CCCN3c2ccnc(NC3CCNCC3)n2)cc1 [Example 8, 4-(7-Phenyl-3,4-dihydro-1,6-naphthyridin-1(2H)-yl)-N-(piperidin-4-yl)pyrimidin-2-amine] |
